Assay results as given in article PMC9653606, “Synergistic Effect of DIBOA and Verbascoside from Acanthus mollis Leaf on Tyrosinase Inhibition” (International Journal of Molecular Sciences, 2022).

Target: mushroom tyrosinase
Test: L-DOPA oxidation (dopachrome, […] nm) inhibition assay with Lineweaver-Burk kinetics
Type: biochemical

| SMILES | IC50 |
| --- | --- |
| O=C1C(O)Oc2ccccc2N1O (centres unmarked) [compound 1, 2,4-dihydroxy-1,4-benzoxazin-3-one] | 27.2 ± 3 µM |
| C[C@@H]1O[C@@H](O[C@@H]2[C@@H](O)[C@H](OCCc3ccc(O)c(O)c3)O[C@H](CO)[C@H]2OC(=O)/C=C/c2ccc(O)c(O)c2)[C@H](O)[C@H](O)[C@H]1O [compound 8, 2-(3,4-dihydroxyphenyl)ethyl-1-O-α-L-rhamnopyranosyl-(1→3)-(4-O-Ε-caffeoyl)-β-D-glucopyranoside] | 22.7 ± 2.83 µM |
